Columns and labels:
hGPR 3 = hGPR 3 (Homo sapiens, UniProt P46089); assay: Ca2+ FLIPR assay in HEK293 cells transiently transfected with hGPR 3; type: cell-based
Method: (§1) Transient transfections were carried out by incubating 5×10^5 HEK293 cells or 2×10^5 CHO-K1 cells in 6-well plates at 37° C. for 24 hours. The cells were then transfected with 1 to 2 μg of a vector, pcDNA 3.1, into which a GPR 3 gene was inserted by Hind III and Xba I sites, under the control of pcDNA 3.1. It is also expected that GPR 3, 6, or 12 may be cloned under control of the eukaryotic CMV promoter or of a control plasmid without corresponding cloned insert. The HEK293 cells were transfected with the aid of FuGene 6 transfection reagent (commercially available, for example from Roche Diagnostics) and the CHO cells were transfected with the aid of Lipofectamine reagent (commercially available, for example from GIBCO-BRL), in each case according to the manufacturer's instructions.
(§2) HEK293 cells were transferred to 96-well microtiter plates 24 hours after transient transfection. The cell density was 80,000 cells per well. The microtiter plates were coated with poly-D-lysine. […] The compounds to be analyzed, i.e., S1P, DHS1P, suramin, and compounds from the lipid library, were present as 2 mM stock solutions in DMSO (dimethyl sulfoxide). […]
(§3) The FLIPR was programmed such that 50 μl of the triple-concentrated suramin stock solution were added to the cells, leading to a final suramin concentration of 300 μM. Fluorescence was measured in 3 second intervals for the first 3 minutes and in 10 second intervals for the last 2 minutes. Ca^2+ signals of ligands were determined similarly.
(§4) The fluorescence data of the 18 to 36 second time interval were used to determine agonist activity.
(§5) Regarding the FLIPR assay, HEK293 cells were transferred to 96-well microtiter plates 24 hours after transient transfection. […] Compounds to be analyzed, e.g., S1P and DHS1 P, were added at this stage. Fluorescence was measured by means of a fluorometric imaging plate reader in 3 second intervals for the first 3 minutes and in 10 second intervals for the last 2 minutes. The fluorescence data of the 18 to 36 second time interval were used to determine agonist activity. […]

hGPR 12 = molecular target: T1, hGPR 12 (Homo sapiens, UniProt P47775); assay: Ca2+ FLIPR assay in HEK293 cells transiently transfected with hGPR 12; type: cell-based
T1 sequence (P47775 1-334): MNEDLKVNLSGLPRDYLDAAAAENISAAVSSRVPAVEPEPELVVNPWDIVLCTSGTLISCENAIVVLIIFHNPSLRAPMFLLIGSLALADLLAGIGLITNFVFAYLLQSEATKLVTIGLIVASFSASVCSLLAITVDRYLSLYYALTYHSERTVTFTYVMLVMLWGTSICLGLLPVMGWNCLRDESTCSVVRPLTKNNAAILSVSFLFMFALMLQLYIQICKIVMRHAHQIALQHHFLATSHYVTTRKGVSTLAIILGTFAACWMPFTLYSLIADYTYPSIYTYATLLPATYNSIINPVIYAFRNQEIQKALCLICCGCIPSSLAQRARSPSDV
Method: as §1, §2, §3, §4, §5

hGPR 6 = hGPR 6 (Homo sapiens, UniProt P46095); assay: Ca2+ FLIPR assay in HEK293 cells transiently transfected with hGPR 6; type: cell-based
Method: as §1, §2, §3, §4, §5

HEK293 cells = assay: Ca2+ release in HEK293 cells; type: cell-based, human; settings: for sensitivity of induced Ca2+ release to pertussis toxin: signal runs via Gαi-type G proteins
Method: HEK293 cells were transferred to 96-well microtiter plates 24 hours after transient transfection. The cell density was 80,000 cells per well. The microtiter plates were coated with poly-D-lysine. The cells were kept in medium containing 1% (v/v) FCS (fetal calf serum) for 18 to 24 hours. After trypsinization, the cells were suspended in DMEM (Dulbecco's modified Eagle's medium) that also contained 25 mM HEPES (N-2-hydroxyethylpiperazine-N′-2-ethanesulfonic acid) pH 7.0, 1% (v/v) FCS, […] and 4 μM dye Fluo4 (fluorescent calcium indicator from Molecular Dynamics), and then incubated at 37° C. with 5% (v/v) CO2 for 1 hour. The cells were then washed 3 times with PBS (phosphate-buffered saline) containing 1 mM MgCl2, 1 mM EDTA and 0.4 mg/ml FAF-BSA (fatty acid-free bovine serum albumin). After the last washing step, the volume was 100 ,μl per […]. The compounds to be analyzed, i.e., S1P, DHS1P, suramin, and compounds from the lipid library, were present as 2 mM stock solutions in DMSO (dimethyl sulfoxide). These stock solutions were diluted 1:500 with the PBS solution containing 1 mM MgCl2, 1 mM EDTA and 0.4 mg/ml FAF-BSA. Lipids were present in the form of triple-concentrated 900 μM solutions prior to the assay. Suramin (Sigma) was prepared in the form of a triple-concentrated 900 μM solution in PBS containing 1 mM MgCl2, 1 EDTA, and 0.4 mg/ml FAF-BSA.
as §3, §4
Regarding the FLIPR assay, HEK293 cells were transferred to 96-well microtiter plates 24 hours after transient transfection. The cell density was 80,000 cells per well. The microtiter plates were coated with poly-D-lysine. The cells were kept in medium containing 1% (v/v) FCS (fetal calf serum) for 18 to 24 hours. […] Compounds to be analyzed, e.g., S1P and DHS1 P, were added at this stage. Fluorescence was measured by means of a fluorometric imaging plate reader in 3 second intervals for the first 3 minutes and in 10 second intervals for the last 2 minutes. The fluorescence data of the 18 to 36 second time interval were used to determine agonist activity. The reader itself equalizes internally the zero values.

Chain of hGPR 6 (P46095 whole entry): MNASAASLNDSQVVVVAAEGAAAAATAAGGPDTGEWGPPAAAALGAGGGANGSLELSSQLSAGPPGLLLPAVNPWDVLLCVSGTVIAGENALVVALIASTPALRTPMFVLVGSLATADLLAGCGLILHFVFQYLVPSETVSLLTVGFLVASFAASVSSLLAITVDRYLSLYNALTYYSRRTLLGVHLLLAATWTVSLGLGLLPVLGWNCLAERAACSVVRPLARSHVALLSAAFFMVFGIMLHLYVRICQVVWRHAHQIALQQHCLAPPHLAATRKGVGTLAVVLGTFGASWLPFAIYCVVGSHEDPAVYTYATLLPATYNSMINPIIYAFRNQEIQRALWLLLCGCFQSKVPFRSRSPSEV
Chain of hGPR 3 (P46089 whole entry): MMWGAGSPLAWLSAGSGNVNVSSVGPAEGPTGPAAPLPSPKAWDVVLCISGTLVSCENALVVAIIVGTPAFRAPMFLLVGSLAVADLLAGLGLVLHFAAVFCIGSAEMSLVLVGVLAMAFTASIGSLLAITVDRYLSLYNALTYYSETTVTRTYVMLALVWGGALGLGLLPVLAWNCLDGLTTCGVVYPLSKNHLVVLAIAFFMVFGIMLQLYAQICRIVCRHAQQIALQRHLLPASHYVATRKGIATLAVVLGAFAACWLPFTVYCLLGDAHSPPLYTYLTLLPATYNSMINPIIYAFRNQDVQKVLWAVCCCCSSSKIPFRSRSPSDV

SMILES	identification as ligand (agonist activity, Ca2+ signal) (hGPR 3)	EC50 (hGPR 3; Ca2+ FLIPR) [µM]	identification as ligand (agonist activity, Ca2+ signal) (hGPR 12)	EC50 (hGPR 12; Ca2+ FLIPR) [µM]	identification as ligand (agonist activity, Ca2+ signal) (hGPR 6)	EC50 (hGPR 6; Ca2+ FLIPR) [µM]	Ca2+ release (HEK293 cells)	sensitivity of induced Ca2+ release to pertussis toxin (HEK293 cells)
CCCCCCCCCCCCC/C=C/[C@@H](O)[C@@H](N)COP(=O)(O)O [S1P, sphingosine 1-phosphate]	physiological ligands	< 0.1	physiological ligands	< 0.1	physiological ligands	< 0.1	cause Ca^2+release	pertussis toxin-sensitive
CCCCCCCCCCCCCCC[C@@H](O)[C@@H](N)COP(=O)(O)O [DHS1P, dihydrosphingosine 1-phosphate]	physiological ligands		physiological ligands		physiological ligands		cause Ca^2+release	pertussis toxin-sensitive

— patent publication US20020182655A1, “Method for identifying ligands for G protein-coupled receptors” (priority 2001, published 2002)
